Assay results reported in patent US12365692B2, “6-hydroxy-8-oxatricyclo[3.2.1.02,4]octane-2-carboxamide derivatives for inducing chondrogenesis for treating joint damage” (NOVARTIS AG, priority 2018, dated 2025).
pIC50: −log10 of the molar value. Where two headings read alike, the source gives them in different places.

Tested on: ALP in NHAC (normal human articular chondrocytes)
Assay: Alkaline Phosphatase (ALP) activity assay: ALP staining and quantitation in NHACs (prevention of chondrocyte hypertrophy)
Assay type: cell-based
Settings: human IL-1 beta 10 ng/mL, 12 days; for pIC50: Fast Blue RR staining, high content imaging
Summary of the method: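 NHACs were plated with test compound in DMEM containing 10% FBS, and human IL-1 beta was added 5 h later at 10 ng/mL final. Cultures were kept 12 days at 37° C, 5% CO2. Cells were then fixed, ALP-stained with Fast Blue RR/Naphthol AS-MX, and hypertrophic cells were imaged and quantified by high-content imaging.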

[1] = Chondrocyte, 288 h, read-out: ALP in NHAC (% Efficacy)

## COc1cc([C@@]23C[C@]2(C(=O)Nc2cc(C(F)(F)F)cc(Cl)n2)[C@H]2C[C@H](O)[C@@H]3O2)ccn1 (racemic) [Example 21, rac-(1R,2R,4S,5R,6S)—N-(6-chloro-4-(trifluoromethyl)pyridin-2-yl)-6-hydroxy-4-(2-methoxypyridin-4-yl)-8-oxatricyclo[3.2.1.02,4]octane-2-carboxamide]
Chondrocyte, 288 h
  pIC50: < 4.52
[1]
  Emax: 0%

## COc1cc([C@@]23C[C@]2(C(=O)Nc2cccc(C(F)(F)F)c2F)[C@H]2C[C@H](O)[C@@H]3O2)ccn1 (racemic) [Example 31, rac-(1R,2R,4S,5R,6S)—N-(2-fluoro-3-(trifluoromethyl)phenyl)-6-hydroxy-4-(2-methoxypyridin-4-yl)-8-oxatricyclo[3.2.1.02,4]octane-2-carboxamide]
Chondrocyte, 288 h
  pIC50: < 4.52
[1]
  Emax: 15%

## COc1cc([C@@]23C[C@]2(C(=O)Nc2cc(C(F)(F)F)cc(C(F)(F)F)c2)[C@H]2C[C@H](O)[C@@H]3O2)ccn1 (racemic) [Example 37, rac-(1R,2R,4S,5R,6S)—N-(3,5-bis(trifluoromethyl)phenyl)-6-hydroxy-4-(2-methoxypyridin-4-yl)-8-oxatricyclo[3.2.1.02,4]octane-2-carboxamide]
Chondrocyte, 288 h
  pIC50: < 4.52
[1]
  Emax: 0%

## Cc1c(NC(=O)[C@]23C[C@@]2(c2cn(C)nc2C(F)(F)F)[C@H]2O[C@@H]3C[C@@H]2O)cccc1C(F)(F)F (racemic) [Example 50, rac-(1R,2R,4S,5R,6S)-6-hydroxy-4-(1-methyl-3-(trifluoromethyl)-1H-pyrazol-4-yl)-N-(2-methyl-3-(trifluoromethyl)phenyl)-8-oxatricyclo[3.2.1.02,4]octane-2-carboxamide]
Chondrocyte, 288 h
  pIC50: < 4.52
[1]
  Emax: 33%

## COc1cc([C@@]23C[C@]2(C(=O)Nc2cc(C(F)(F)F)c(Cl)cn2)[C@H]2C[C@H](O)[C@@H]3O2)ccn1 (racemic) [Example 22, rac-(1R,2R,4S,5R,6S)—N-(5-chloro-4-(trifluoromethyl)pyridin-2-yl)-6-hydroxy-4-(2-methoxypyridin-4-yl)-8-oxatricyclo[3.2.1.02,4]octane-2-carboxamide]
Chondrocyte, 288 h
  pIC50: < 4.52
[1]
  Emax: 27%

## COc1cc([C@@]23C[C@]2(C(=O)Nc2cc(C(F)(F)F)cc(C4CC4)n2)[C@H]2C[C@H](O)[C@@H]3O2)ccn1 (racemic) [Example 23, rac-(1R,2R,4S,5R,6S)—N-(6-cyclopropyl-4-(trifluoromethyl)pyridin-2-yl)-6-hydroxy-4-(2-methoxypyridin-4-yl)-8-oxatricyclo[3.2.1.02,4]octane-2-carboxamide]
Chondrocyte, 288 h
  pIC50: < 4.52
[1]
  Emax: 4%

## O=C(Nc1cc(C(F)(F)F)cc(C2CC2)n1)[C@]12C[C@@]1(c1ccnc(F)c1)[C@H]1O[C@@H]2C[C@@H]1O (racemic) [Example 6, rac-(1R,2R,4S,5R,6S)—N-(6-cyclopropyl-4-(trifluoromethyl)pyridin-2-yl)-4-(2-fluoropyridin-4-yl)-6-hydroxy-8-oxatricyclo[3.2.1.02,4]octane-2-carboxamide]
Chondrocyte, 288 h
  pIC50: < 4.52
[1]
  Emax: 9%

## Cn1cc([C@@]23C[C@]2(C(=O)Nc2cc(F)cc(C(F)(F)F)c2)[C@H]2C[C@H](O)[C@@H]3O2)c(C(F)(F)F)n1 (racemic) [Example 56, rac-(1R,2R,4S,5R,6S)—N-(3-fluoro-5-(trifluoromethyl)phenyl)-6-hydroxy-4-(1-methyl-3-(trifluoromethyl)-1H-pyrazol-4-yl)-8-oxatricyclo[3.2.1.02,4]octane-2-carboxamide]
Chondrocyte, 288 h
  pIC50: < 4.52
[1]
  Emax: 30%

## CCOc1cc(C(F)(F)F)cc(NC(=O)[C@]23C[C@@]2(c2cn(C)nc2C(F)(F)F)[C@H]2O[C@@H]3C[C@@H]2O)n1 (racemic) [Example 48, rac-(1R,2R,4S,5R,6S)—N-(6-ethoxy-4-(trifluoromethyl)pyridin-2-yl)-6-hydroxy-4-(1-methyl-3-(trifluoromethyl)-1H-pyrazol-4-yl)-8-oxatricyclo[3.2.1.02,4]octane-2-carboxamide]
Chondrocyte, 288 h
  pIC50: < 4.52
[1]
  Emax: 40%

## O=C(Nc1cc(C(F)(F)F)c(Cl)cn1)[C@]12C[C@@]1(c1ccnc(F)c1)[C@H]1O[C@@H]2C[C@@H]1O (racemic) [Example 5, rac-(1R,2R,4S,5R,6S)-N-(5-chloro-4-(trifluoromethyl)pyridin-2-yl)-4-(2-fluoropyridin-4-yl)-6-hydroxy-8-oxatricyclo[3.2.1.02,4]octane-2-carboxamide]
Chondrocyte, 288 h
  pIC50: < 4.52
[1]
  Emax: 38%

## (1R,2R,4S,5R,6S)—N-(2-cyano-5-(trifluoromethyl)phenyl)-6-hydroxy-4-(2-methoxypyridin-4-yl)-8-oxatricyclo[3.2.1.02,4]octane-2-carboxamide or (1S,2S,4R,5S,6R)—N-(2-cyano-5-(trifluoromethyl)phenyl)-6-hydroxy-4-(2-methoxypyridin-4-yl)-8-oxatricyclo[3.2.1.02,4]octane-2-carboxamide [Example 39b]
  Emax: (97) %
  pIC50: 6.60

## (1R,2R,4S,5R,6S)—N-(2-cyano-5-(trifluoromethyl)phenyl)-6-hydroxy-4-(2-methoxypyridin-4-yl)-8-oxatricyclo[3.2.1.02,4]octane-2-carboxamide or (1S,2S,4R,5S,6R)—N-(2-cyano-5-(trifluoromethyl)phenyl)-6-hydroxy-4-(2-methoxypyridin-4-yl)-8-oxatricyclo[3.2.1.02,4]octane-2-carboxamide [Example 39a]
  Emax: (90) %
  pIC50: 6.54

## O=C(Nc1cccc(C(F)(F)F)c1)[C@]12C[C@@]1(c1cccc(C(F)(F)F)c1)[C@H]1O[C@@H]2C[C@@H]1O (racemic) [Example 67, rac-(1R,2R,4S,5R,6S)-6-hydroxy-N,4-bis(3-(trifluoromethyl)phenyl)-8-oxatricyclo[3.2.1.02,4]octane-2-carboxamide]
Chondrocyte, 288 h
  pIC50: 4.57
[1]
  Emax: 54%

## COc1cc([C@@]23C[C@]2(C(=O)Nc2cccc(C(F)(F)F)c2)[C@H]2C[C@H](O)[C@@H]3O2)ccn1 (racemic) [Example 26, rac-(1R,2R,4S,5R,6S)-6-hydroxy-4-(2-methoxypyridin-4-yl)-N-(3-(trifluoromethyl)phenyl)-8-oxatricyclo[3.2.1.02,4]octane-2-carboxamide]
Chondrocyte, 288 h
  pIC50: < 4.52
[1]
  Emax: 5%

## N#Cc1ccc(C(F)(F)F)cc1NC(=O)[C@]12C[C@@]1(c1cccc(C(F)(F)F)c1)[C@H]1O[C@@H]2C[C@@H]1O (racemic) [Example 80, rac-(1R,2R,4S,5R,6S)—N-(2-cyano-5-(trifluoromethyl)phenyl)-6-hydroxy-4-(3-(trifluoromethyl)phenyl)-8-oxatricyclo[3.2.1.02,4]octane-2-carboxamide]
Chondrocyte, 288 h
  pIC50: 5.66
[1]
  Emax: 76%

## COc1cc([C@@]23C[C@]2(C(=O)Nc2cc(C(F)(F)F)ccn2)[C@H]2C[C@H](O)[C@@H]3O2)ccn1 (racemic) [Example 20, rac-(1R,2R,4S,5R,6S)-6-hydroxy-4-(2-methoxypyridin-4-yl)-N-(4-(trifluoromethyl)pyridin-2-yl)-8-oxatricyclo[3.2.1.02,4]octane-2-carboxamide]
Chondrocyte, 288 h
  pIC50: < 4.52
[1]
  Emax: 24%

## Cn1cc([C@@]23C[C@]2(C(=O)Nc2cc(C(F)(F)F)ccc2C#N)[C@H]2C[C@H](O)[C@@H]3O2)c(C(F)(F)F)n1 (racemic) [Example 69, rac-(1R,2R,4S,5R,6S)—N-(2-cyano-5-(trifluoromethyl)phenyl)-6-hydroxy-4-(1-methyl-3-(trifluoromethyl)-1H-pyrazol-4-yl)-8-oxatricyclo[3.2.1.02,4]octane-2-carboxamide]
Chondrocyte, 288 h
  pIC50: 5.74
[1]
  Emax: 88%

## N#Cc1ccc(NC(=O)[C@]23C[C@@]2(c2cccc(C(F)(F)F)c2)[C@H]2O[C@@H]3C[C@@H]2O)cc1C(F)(F)F (racemic) [Example 79, rac-(1R,2R,4S,5R,6S)—N-(4-cyano-3-(trifluoromethyl)phenyl)-6-hydroxy-4-(3-(trifluoromethyl)phenyl)-8-oxatricyclo[3.2.1.02,4]octane-2-carboxamide]
Chondrocyte, 288 h
  pIC50: 5.00
[1]
  Emax: 78%

## CCOc1ccc(NC(=O)[C@]23C[C@@]2(c2cn(C)nc2C(F)(F)F)[C@H]2O[C@@H]3C[C@@H]2O)cc1C(F)(F)F (racemic) [Example 65, rac-(1R,2R,4S,5R,6S)—N-(4-ethoxy-3-(trifluoromethyl)phenyl)-6-hydroxy-4-(1-methyl-3-(trifluoromethyl)-1H-pyrazol-4-yl)-8-oxatricyclo[3.2.1.02,4]octane-2-carboxamide]
Chondrocyte, 288 h
  pIC50: 4.92
[1]
  Emax: 84%

## Cc1cc(NC(=O)[C@]23C[C@@]2(c2cn(C)nc2C(F)(F)F)[C@H]2O[C@@H]3C[C@@H]2O)cc(C(F)(F)F)c1 (racemic) [Example 52, rac-(1R,2R,4S,5R,6S)-6-hydroxy-4-(1-methyl-3-(trifluoromethyl)-1H-pyrazol-4-yl)-N-(3-methyl-5-(trifluoromethyl)phenyl)-8-oxatricyclo[3.2.1.02,4]octane-2-carboxamide]
Chondrocyte, 288 h
  pIC50: 4.68
[1]
  Emax: 70%

## O=C(Nc1cccc(C(F)(F)F)c1)[C@]12C[C@@]1(c1ccnc(F)c1)[C@H]1O[C@@H]2C[C@@H]1O (racemic) [Example 9, rac-(1R,2R,4S,5R,6S)-4-(2-fluoropyridin-4-yl)-6-hydroxy-N-(3-(trifluoromethyl)phenyl)-8-oxatricyclo[3.2.1.02,4]octane-2-carboxamide]
Chondrocyte, 288 h
  pIC50: < 4.52
[1]
  Emax: 32%

## COc1cc([C@@]23C[C@]2(C(=O)Nc2ccc(C)c(C(F)(F)F)c2)[C@H]2C[C@H](O)[C@@H]3O2)ccn1 (racemic) [Example 28, rac-(1R,2R,4S,5R,6S)-6-hydroxy-4-(2-methoxypyridin-4-yl)-N-(4-methyl-3-(trifluoromethyl)phenyl)-8-oxatricyclo[3.2.1.02,4]octane-2-carboxamide]
Chondrocyte, 288 h
  pIC50: < 4.52
[1]
  Emax: 13%
